Entries after “also recorded” stand apart in the source; their conditions may differ.
Experiments:
[1] = test system: telomerase-positive cells including brain tumor cells; test: Cell growth assay, panel of telomerase-positive cells; format: cell-based, human
Experimental: Cell growth and sphere formation assay. After dissociating primary neurospheres by TrypLE express (Gibco), single cells were seeded in respective growth media in 6-well plates and were incubated for one week at varying concentrations (0.5 to 10 μM) of 6-thio-dG or DMSO. Fresh culture media were added every three days. Viable cell numbers were determined by trypan blue exclusion method. For sphere formation assay, MB004 single cells were seeded in limited dilution (10 cells/well in 96-well plate) and treated with DMSO or 6-thio-dG. Sphere formation was monitored by microscopy.

[2] = test system: HFF cells; test: Senescence-associated β-galactosidase assay; format: cell-based, human; conditions: 3 μM for 23 days
From the text: (§1) Senescence assay. Senescence-associated β-galactosidase was detected as previously described (2). Cells were observed under the microscope until the development of the blue color and the reaction was terminated. Images were captured; stained and unstained cells were counted from multiple fields to quantitate the percent senescent cells.

[3] = test system: HFF+hTERT cells; test: Senescence-associated β-galactosidase assay; format: cell-based, human; conditions: 3 μM for 23 days
From the text: as §1

[4] = cited from earlier work
[5] = test system: MB004 cells; test: Immunofluorescence and telomere FISH (TIF) assay; format: cell-based, human; conditions: 3 μM 2 days, then 3 days continuous or discontinuous treatment
Experimental: (§2) Immunofluorescence and telomere FISH assay. Cells were fixed with 4% paraformaldehyde (PFA) for 15 minutes. Cells were then washed, permeabilized with 0.5% Triton-X-100 in PBS, blocked with 5% donkey serum and 0.3% Triton X-100 in TBS and incubated with primary antibodies against γH2A.X (1:500, rabbit), or cleaved caspase-3 (1:400, rabbit) (Cell Signaling); and/or TRF2 (1:200) (Mouse; NOVUS), as applicable, for overnight followed by TBST wash (×3) next day. Corresponding secondary antibodies were added (Alexa-Fluor 488- or 594-conjugated donkey anti-rabbit, or anti-mouse (1:500) (Jackson ImmunoResearch) for 1 hour and washed with TBS (×3) before mounting. For telomere-FISH, fixed and permeabilized cells were dehydrated with a graded ethanol concentration series, air-dried and covered with hybridization solution (70% formamide, 0.5% Blocking Reagent (Roche Diagnostics) diluted in 100 mM maleic acid and 150 mM sodium chloride, and 10 mM Tris (pH 7.5)) with 300 ng/mL PNA(CCCTAA)3-Cy3 (SEQ ID NO: 1) (Biosynthesis, USA), and denatured for 6 minutes at 84° C. followed by hybridization for at least two hours at room temperature. Cells were washed three times with 70% formamide and 10 mM Tris (pH 7.5) and three times with TBS. Finally, they were embedded with mounting media with DAPI (Vector Laboratories H1200).

[6] = test system: HFF cells; test: Immunofluorescence and telomere FISH (TIF) assay; format: cell-based, human
Experimental: as §2

[7] = test system: HFF+hTERT cells; test: Immunofluorescence and telomere FISH (TIF) assay; format: cell-based, human
Experimental: as §2

[8] = test system: CCHMC-DIPG-1 orthotopic tumors; test: Orthotopic patient-derived DIPG xenograft (CCHMC-DIPG-1 in pons); format: in vivo, mouse
Experimental: Mouse subcutaneous and orthotopic xenograft. Athymic Ncr-nu/nu female mice (6-7 weeks old) were subcutaneously injected with 10,000 MB004 cells. Mice were weighed and distributed in two groups (control and 6-thio-dG). After tumor-establishment (day 23-24 post-implantation) with an average volume of 100-200 mm3, mice were injected intraperitoneally (i.p) every 2 days with 6-thio-dG (2.5 mg/kg) or DMSO-PBS (vehicle) for 3-4 weeks until euthanization. Tumors were measured by slide calipers taking two longest tumor-diameters (length and width) perpendicular to each other and volumes were calculated by using the formula: (π/6)×d3, where d=mean diameter. For orthotopic xenograft, CCHMC-DIPG-1 luciferase-positive cells (10,000) were injected in the brain of NRG (NOD.Cg-Rag1tm1Mom Il2rgtm1Wjl/SzJ) mice. Briefly, mice were injected stereotactically with 2 μl medium containing 10,000 luciferase-positive cells. The coordinates for injection were 0.8-1 mm posterior to lambda suture and 3.5 mm deep, corresponding to the pons location in the brain. Tumors were visualized by luminescence using IVIS Spectrum CT in vivo imaging system (PerkinElmer). All animal procedures were approved by the Institutional Animal Care and Use Committee (IACUC) (protocol #IACUC2015-0066, CCHMC).
Immunohistochemistry. Formalin-fixed paraffin-embedded (FFPE) sections were deparaffinized in xylene followed by rehydration through a graded ethanol concentration series. Heat-induced antigen retrieval was performed by steaming slides for 20 minutes in 10 mM Citrate buffer (pH 6.0). […] Slides were washed with TBST (×3) and were treated with biotinylated anti-rabbit secondary antibody (1:500) and signal-amplified using ABC Kit (Vector Laboratories). Signal was visualized with DAB (Vector Laboratories) and counterstained with Harris Hematoxylin (Sigma). H & E staining was performed using hematoxylin-1 and eosin-Y (Thermo Scientific). Tissues were mounted with Permount (Fisher Scientific) and imaged by Nikon eclipse 80i microscope.
Tissue TIF assay. […]

[9] = test system: HeLa cells; test: Cell cycle analysis (PI flow cytometry); format: cell-based, human
Experimental: (§3) Cell cycle analysis. […] Cells were then washed and stained with propidium iodide (PI) solution containing 25 μg/mL PI (Sigma), and 100 μg/mL Ribonuclease-A (Sigma) for 30 minutes in the dark. Flow cytometry was performed on BD FACS Canto II and cells were analyzed using FlowJo v.10 (FlowJo, USA) software.

[10] = test system: MB004 cells; test: Cell cycle analysis (PI flow cytometry); format: cell-based, human; conditions: 3 μM for 3 days
Experimental: as §3

Structure (SMILES): Nc1nc2c(ncn2[C@H]2C[C@H](O)[C@@H](CO)O2)c(=S)[nH]1 [6-thio-dG, 6-thio-2′-deoxyguanosine]
- cell growth ([1]; 0.5 to 10 μM every three days for one week): inhibited cell growth in a dose-dependent manner
- IC50 ([1]; Homo sapiens, all telomerase-positive cells including brain tumor cells (Table S2)): 140 to 1450 nM
- cells SA-β-gal-positive [2]: 7%
- cells with senescence phenotype (SA-β-gal-positive) [3]: 30%
- animal deaths or weight loss ([4]; mice treated with 6-thio-dG, Mender et al.): no animal deaths or weight loss
- toxic effects on hematologic counts, liver and kidney functions ([4]; mouse, in vivo): did not cause any toxic effects
- TIF formation [5]: sustained TIF formation
- TIF formation (cells with TIFs) ([6]; 3 μM, after 2 or 5 days treatment): less than 3%
- TIFs after drug withdrawal ([6]; 3 days after drug withdrawal): completely disappeared
- cells TIF-positive ([7]; 3 μM 2 days, then 3 days after drug withdrawal): ~31%
- cells TIF-positive ([7]; 3 μM, 5 days continuous treatment): ~34%
- number of cells with TIFs ([7]; 3 μM, after two days): ~25%
- number of TIFs per cell and number of cells with TIFs ([7]; 3 μM, from day 1 to day 3): markedly increased
- intratumoral TIFs and genomic DNA damage ([8]; i.p., 7-8 days (4-5 doses in total), vs untreated tumors): increase in the number of cells with genomic DNA damage and TIFs
- effect on normal mouse brain ([8]; intraperitoneal injection): no obvious effect on normal brain tissue; also recorded: did not observe any adverse effects
- penetration to brain tumor site ([8]; intraperitoneal injection): reached the tumor in the pons; also recorded: crossed the blood-brain-barrier
- effect on cell cycle progression after drug removal ([9]; 3 μM 3 days, then drug removed): persisted several days after drug withdrawal
- cell cycle progression ([9]; 3 μM, three days): caused G2/M arrest
- cell cycle populations ([9]; continuous treatment, 3 μM): sharp increase in G2/M, >4n and sub-G1 cell populations
- cell cycle populations [10]: increase in sub-G1 and G2/M cell populations

Source: US12594293B2, “Use of 6-thio-dG to treat therapy-resistant telomerasepositive pediatric brain tumors” (The Board of Regents of The University of Texas System, priority 2018, dated 2026)
